Consider two molecules from patent EP4714441A1, “COMPOSITION FOR PREVENTING OR ALLEVIATING HEPATIC DYSFUNCTION” (KIRIN HOLDINGS KABUSHIKI KAISHA, priority 2023, dated 2025).

Assay type in all cases: cell-based, human
Data set [1] deals with HepG2 cells. Put plainly: Cell viability by MTT assay in HepG2 cells with hepatocyte damage induced by hydrogen peroxide. The following applies: HepG2 cells damaged by hydrogen peroxide; result in words. On the procedure: (§1) A human liver cancer-derived cell line (HepG2: HB-8065™, Lot No. 70029112) was obtained from the American Type Culture Collection, and Dulbecco's Modified Eagle Medium (Thermo Fisher Scientific K.K.) containing 10% FBS was used as the basal medium. The cells were cultured in a 37°C, 5% CO2 incubator, and cells passaged for 17 to 22 generations were used for the experiments.
(§2) A cell suspension adjusted to an initial cell concentration of 2 x 10^4 cells/mL was seeded at 0.15 mL into a 96-well plate (Thermo Fisher Scientific K.K.).
After 20 hours of culture from seeding, alpha-lipoic acid trisulfide (LASSS) or alpha-lipoic acid trisulfide choline ester (LASSS-CE) was added to the medium in groups with a final concentration of 0.025 mM or 0.05 mM. Separately, a group to which only the solvent for LASSS or LASSS-CE (phosphate-buffered saline (PBS) containing 4% DMSO (FUJIFILM Wako Pure Chemical Corporation)) was added was designated as the solvent-added group. […] After culturing for 2 hours following the addition of hydrogen peroxide solution or PBS, cell viability was measured by the MTT assay to evaluate the extent of hepatocyte injury. […]

The nature of data set [2]: Cell viability by MTT assay in HepG2 cells without hydrogen peroxide (effect on cell proliferation itself). The settings on record: human, hepg2 cells, PBS instead of hydrogen peroxide, control group = 100; for viability at 25 µM: Sample-added group (0.025 mM); for viability at 50 µM: Sample-added group (0.05 mM). How it is done: as §1, §2
(§3) After 20 hours of culture from seeding, alpha-lipoic acid trisulfide (LASSS) or alpha-lipoic acid trisulfide choline ester (LASSS-CE) was added to the medium in groups with a final concentration of 0.025 mM or 0.05 mM. Separately, a group to which only the solvent for LASSS or LASSS-CE (phosphate-buffered saline (PBS) containing 4% DMSO (FUJIFILM Wako Pure Chemical Corporation)) was added was designated as the solvent-added group. After 4 hours of culture following the sample addition, the medium of the above sample-added groups and the solvent-added group was replaced with a medium (not containing LASSS or LASSS-CE) to which hydrogen peroxide solution (FUJIFILM Wako Pure Chemical Corporation) had been added to a final concentration of 0.1 mM, thereby inducing hepatocyte damage. A group in which the same amount of PBS was added instead of hydrogen peroxide solution to the solvent-added group was designated as the control group. After culturing for 2 hours following the addition of hydrogen peroxide solution or PBS, cell viability was measured by the MTT assay to evaluate the extent of hepatocyte injury. In the table, SD represents standard deviation.
(§4) Furthermore, to evaluate the effect of LASSS and LASSS-CE on cell proliferation itself, a similar experiment was conducted by replacing the addition of hydrogen peroxide solution with the addition of the same amount of PBS, and the cell viability was measured by the MTT assay method.
In general terms: Formazan colour is commonly taken as a measure of viable cells.

For data set [3], the system named is HepG2 cells. The description is as above. The following applies: without hydrogen peroxide solution; result in words. How it is done: as §1, §2, §3, §4

For `O=C(O)CCCCC1CCSSS1` (stereo not drawn) [LASSS, alpha-lipoic acid trisulfide], the “cell viability compared to the hydrogen peroxide-added group” value in data set [1] is on record as “an improvement in cell viability was confirmed”. For the same molecule, in data set [2], the viability at 25 µM turned out to be 102% and the viability at 50 µM was 102%. The “effect on the proliferation of HepG2 cells” value in data set [3] is listed as “did not affect the proliferation of HepG2 cells”.

As for `C[N+](C)(C)CCOC(=O)CCCCC1CCSSS1` (stereo not drawn) [LASSS-CE, alpha-lipoic acid trisulfide choline ester], in data set [1], the “cell viability compared to the hydrogen peroxide-added group” value was “an improvement in cell viability was confirmed”. For the same molecule, in data set [2], the viability at 25 µM amounted to 109% and the viability at 50 µM stood at 106%. Moreover, the “effect on the proliferation of HepG2 cells” value in data set [3] is “did not affect the proliferation of HepG2 cells”.

What is called viability is a read-out of living cells in per cent, often relative to untreated cells.
